From patent US20220117940A1, “COMPOSITION FOR INCREASING PREGNANCY RATE OF RUMINANTS AND PREPARATION METHOD AND APPLICATION THEREOF” (CHINA AGRICULTURAL UNIVERSITY, priority 2020, published 2022)
Marks after values point to notes of the source that are not given here.

Key:
[1] = Serum MT concentration after melatonin injection in cows exposed to ovsynch TAI (liquid chromatography); details: melatonin injected with last dose of GnRH, PG-PG-GnRH-PG-GnRH ovsynch TAI, mean ± standard error, P<0.05 vs no melatonin
[2] = tested on: cows exposed to TAI or natural ovulation; assay: Pregnancy and calving rates of first insemination in cows (TAI or natural ovulation) with melatonin injection; assay type: in vivo, Holstein cows
Method: (§1) 50 to 60 days after the insemination, the pregnancy tests were performed on the Holstein cows by means of rectal examination. Alternatively, 32 days after the insemination, the pregnancy rates were calculated by means of B-scan ultrasonography and pregnancy detection kits.

[3] = tested on: Holstein cows exposed to natural ovulation; assay: Pregnancy and calving rates of cows exposed to natural ovulation with melatonin injection; assay type: in vivo
Method: as §1

[4] = tested on: Holstein cows exposed to TAI; assay: Pregnancy and calving rates of cows exposed to ovsynch TAI with melatonin injection; assay type: in vivo
Method: A melatonin injection of 2-3 mL was injected in combination with the injection of GnRH of ovsynch TAI in cows (as shown in FIG. 1), with B-scan pregnancy tests on Days 32-35, or pregnancy tests by recto-vaginal technique on Day 60. The pregnancy rates were calculated.
2 mL of the injection prepared in Example 1 was administrated together with the last injection of GnRH to multipara Holstein cows (1-3 pregnancies) exposed to postpartum ovsynch TAI. In this process, a randomized administration approach was used, for example administer to every other cow in which the first cow was administrated, the second was not administrated, the third was administrated, and so on.
as §1

mouse = details: 5 mg/kg injected before the MT1 receptor peak; cited from earlier work
Holstein cows = assay: Serum reproductive hormone levels after melatonin injection in cows exposed to ovsynch TAI; assay type: in vivo; details: mean ± standard error; for P (progesterone) levels: pregnant cows, Day 30 of pregnancy; for P (progesterone) levels / E2 (estradiol) levels / LH levels: P<0.05; for E2 (estradiol) levels / LH levels / FSH levels: serum; for E2 (estradiol) levels / LH levels: 8 hours after injection of GnRH plus melatonin; for FSH levels: after melatonin with last dose of GnRH, no significant change (P>0.05)
Text: The process is substantially same as that of Example 2, except that blood was collected at each stage from ovsynch TAI to pregnancy tests, in order to determine the changes in relevant reproductive hormones in ovulating cows.

[5] = first insemination, TAI plus natural ovulation, of 162

MT levels in blood (serum) [1]: 4.35±0.53
MT levels in blood (serum) ([1]; listed as MT): 4.3465±0.5286
Compound: COc1ccc2[nH]cc(CCNC(C)=O)c2c1 [Melatonin, N-acetyl-5-methoxytryptamine]
Increase of pregnancy rate relative to control ([2]; TAI or natural ovulation, 11.85/26.42): more than 44.85%
Pregnancy rate of first insemination ([2]; TAI plus natural ovulation, P<0.05 vs control): 38.27%^a
Calving rate ([2]; first insemination, TAI plus natural ovulation, P<0.05 vs control): 27.16%^a
Number of calves [2, 5]: 44
Number of pregnant cows [2, 5]: 62
Increase of pregnancy rate relative to control ([3]; 14.60/26.25): more than 55.62%
Calving rate ([3]; P<0.05 vs control): 29.58%^A
Pregnancy rate ([3]; P<0.05 vs control): 40.85%^A
Number of calves ([3]; of 71 cows): 21
Number of pregnant cows ([3]; of 71 cows): 29
Pregnancy rate ([4]; TAI, 2 mL of 15 mg/mL injection with last GnRH, P<0.05 vs control): 36.26%^a
Number of pregnant cows ([4]; TAI, 2 mL of 15 mg/mL injection with last GnRH, of 91 cows): 33
Calving rate ([4]; TAI, P<0.05 vs control): 25.27%^a
Number of calves ([4]; TAI, of 91 cows): 23
Increase of pregnancy rate relative to control ([4]; multipara cows, ovsynch TAI, 9.68/26.58): more than 36.42%
Increase of pregnancy rate ([4]; preparation comprising melatonin of 15 mg/mL, cows exposed to ovsynch TAI): 11%
Expression of corpus luteum marker genes Akr1c18 and Cyp11a1 (mouse): upregulate
Level of progesterone in mouse serum (mouse): significantly increase
P (progesterone) levels (Holstein cows): 0.18±0.02
P (progesterone) levels (Holstein cows; listed as MT): 0.1825±0.0235
E2 (estradiol) levels (Holstein cows): 11.68±0.88
LH levels (Holstein cows): 5.02±0.23
E2 (estradiol) levels (Holstein cows; listed as MT): 11.678±0.8834
LH levels (Holstein cows; listed as MT): 5.022±0.2324
FSH levels (Holstein cows): 2.48±0.25
FSH levels (Holstein cows; listed as MT): 2.482±0.2463
